Earlier results in US5952383A, “Pharmaceutical composition for oral delivery” (Negma-Steba International Development N.V., priority 1996, dated 1999).
Structures can show the parent of a compound that is named as a salt.

Columns and labels:
[1] = oral

| solubility in carbonate solutions and in tetrahydrofuran (carbonate solutions and tetrahydrofuran) | solubility in water and in alcohols (water and alcohols) | solubility in water and ethanol (water and ethanol) | absorption by the digestive tract [1] | solubility in water (water, EP-A-243,968) | SMILES | undesirable side effects ([1]; on account of incomplete absorption) |
| --- | --- | --- | --- | --- | --- | --- |
| sparingly soluble | virtually insoluble | virtually insoluble | not totally absorbed |  | CC(=O)Oc1cccc2c1C(=O)c1c(OC(C)=O)cc(C(=O)O)cc1C2=O [diacerein, diacetylrhein] | laxative effects |
|  |  |  |  | water-soluble | CC(=O)Oc1cccc2c1C(=O)c1c(OC(C)=O)cc(C(=O)O)cc1C2=O [potassium salt of diacerein] |  |
